Structures are written as SMILES. Bounds are passed on as bounds.

Melting point data for 84 compounds are collected here from a melting point compilation (Tetko et al.; mined from patent text by program, amines drawn as free bases though some values may be those of a salt).

The compound `CSc1nc(Cl)c(-c2c(F)cc(F)cc2F)c(NC(C)C)n1` yielded a melting point of 112 to 116 °C. The value for `O=S(CCCn1cnc(-c2ccc(F)cc2)c1-c1ccncc1)c1ccccc1` (centres undefined) was 146 to 148 °C; that for `CCCCOc1cc(-c2ccccc2)c(OCC(=O)O)c(-c2ccccc2)c1` was 92 to 94 °C. The value for `COC(=O)C1=Cc2cc(-c3ccc(OC)cc3)ccc2S(=O)(=O)CC1` was 191 to 193 °C; that for `O=C(c1ccc(Cl)cc1)c1cc(-c2ccc(Cl)cc2)c(N2CCOCC2)s1` was 145 to 149 °C. The figure for `C=CCN1C(C(=O)Nc2coc3ccccc3c2=O)C(=O)c2ccccc2S1(=O)=O` (centres undefined) is 218 to 220 °C; for `CNCCCn1c(-c2ccc(OC)cc2)csc1=Nc1ccccc1` it is 143 to 146 °C. Compound `CCCCOc1nc(N)c2[nH]c(=O)n(CCCCN(CC(C)(C)O)S(=O)(=O)c3cccc(CC(=O)OC)c3)c2n1` gave a melting point of 192 to 193 °C. The figure for `Cc1ncc(-c2ccc3[nH]c4c(cc(-c5ccc(Cl)cc5Cl)c(=O)n4C)c3c2)o1` is 338 to 340 °C. The compound `COc1cccc(C=C2c3ccccc3CCc3ccccc32)c1` yielded a melting point of 83 °C. The value for `C#Cc1ccc(C)cc1CC(=O)O` was 98 to 101 °C.

Compound `CCOC(=O)Cc1cccc(C(=O)c2ccc(Br)cc2)c1N` displayed a melting point of 107 to 109 °C.

Turning to `CC(C)(C)OC(=O)CNNC(=O)OCc1ccccc1`, the melting point lay within 61 to 62 °C. `N#Cc1cc(-n2ccc(-c3ccc(F)cc3)n2)cc(S(N)(=O)=O)c1`: the melting point lay within 184 to 185 °C.

`CCOC(=O)c1cc2c3ccccc3n(CCCc3ccccc3)c2c(C)n1` had a melting point of 101 to 102 °C. `Cc1cc(-n2ccnc2)c2cccc(OCc3c(Cl)ccc(S(=O)(=O)N4CCC[C@H]4C(=O)NCCN4CCCC4)c3Cl)c2n1`: the melting point is 105 °C. In turn, `COc1cc(C2Cc3ccccc3-c3nc(N)c4ccccc4c32)cc(OC)c1OC` (centres undefined) returned a melting point of 272 °C. As for `CCCc1oc(-c2ccccc2)nc1COc1ccc(COc2cccc(CC(=O)O)c2)cc1`, the melting point lay within 115 to 116 °C.

In turn, `CC(C)n1c(C=O)c(-c2ccc(F)cc2)c(-c2ccc(F)cc2)c1C(=O)NCc1ccc(S(C)(=O)=O)cc1` returned a melting point of 203 to 204 °C. Consider `Oc1ccccc1C=Nc1ccc(O)c2ccccc12`, for which the melting point fell in the range of 154 to 157 °C. In turn, `COc1cc2c(cc1OCc1ccccc1)C1Cc3c(Cl)cc(OC)c(OC(=O)c4ccccc4)c3CN1CC2` (centres undefined) returned a melting point of 170 to 172 °C. Regarding `O=Cc1cc(Cl)ccc1OCCc1ccccc1`, the melting point was 73 to 74 °C. `COc1ccc2c(c1)CCC(NCC(=O)O)C2` (centres undefined) returned a melting point of 195 to 198 °C. The value for `COC(=O)c1cn(Cc2ccccc2)c2ccc(C3CCCCC3)cc2c1=O` was 211 to 213 °C; that for `CC(=O)OCc1cc(=O)n2ccsc2n1` was 144 to 145 °C. `CN1CCc2nc3ccc(Cl)cc3c(Cl)c2C1` came in with a melting point of 88 to 89 °C. For the compound `O=C(CCl)Oc1ccccc1CCC1SCCN1C(=O)CCl` (centres undefined), the melting point was in the range of 88 to 89 °C. Regarding `CCOC(=O)c1cn(Cc2ccccc2)nc1OCc1ccc(OCc2nc(-c3ccco3)oc2C)cc1`, the melting point was 101 to 102 °C. Consider `C[C@@H](CO)[C@](O)(Cn1cncn1)c1ccc(F)cc1F`, for which the melting point was 93 to 95 °C.

`COc1ccc(NC(=NC#N)NC(NC(=O)Cc2ccc(OC)c(OC)c2)C(C)(C)C)c(OC)n1` (centres undefined) yielded a melting point of 162 to 163 °C. Compound `O=C1c2ccccc2C(=O)N1CCCCCCCCOc1cccc2ccccc12` yielded a melting point of 63 to 64 °C.

For `CN1CCC(CC2CN=C(c3cc4cccc(N(C)S(=O)(=O)c5cccs5)c4[nH]3)S2)=N1` (centres undefined), the melting point lay within 149 to 150 °C. Consider `Cc1ccc(C(=O)c2cc(-c3ccc(S(C)(=O)=O)cc3)c(N3CCOCC3)s2)cc1`, for which the melting point was determined as 189 °C. The value for `Cc1noc(NS(=O)(=O)c2ccc(-c3ccc(C(=O)O)cc3)s2)c1Br` was 219 to 228 °C; that for `O=P(O)(O)C1(P(=O)(O)O)CCCCCN1` was 275 °C; that for `CN(C(=NC#N)Nc1cccnc1)C(NC(=O)c1ccc(Cl)cc1)C(C)(C)C` (centres undefined) was 127 to 129 °C.

In turn, `CC(=O)Nc1cc(C(C)(C)C)nn1C(=NOS(=O)(=O)c1ccc(C)cc1)C(C)CN1C(=O)c2ccccc2C1=O` (centres undefined) gave a melting point of 170 to 172 °C. The figure for `Cc1c(NC(=O)c2ccc(-c3ccc(Cl)s3)cc2)ccc2cc(CN3CCCCC3)cnc12` is 212 to 213 °C. The value for `CCCc1c(OCCCCCOc2ccc(CCCCC(=O)O)cc2CCC(=O)O)ccc2c1OCCC2=O` was 101 to 104 °C; that for `CS(=O)(=O)c1ccc(-c2cnn(-c3ccc(C#N)cc3)c(=O)c2-c2ccc(F)cc2)cc1` was 273 to 278 °C; that for `Cc1cc(C(=O)NC2=NCCC2(c2ccccc2)c2ccccc2)[nH]n1` was 213 to 215 °C. The figure for `O=C(Nc1ccc(Cl)c(C(F)(F)F)c1)N1NC(c2ccccc2)C(c2ccccc2)C1=O` (centres undefined) is 72 to 74 °C. Compound `N#CCN1CCC(OC(c2ccccc2)c2ccccc2)CC1` gave a melting point of 78 to 80 °C.

`COc1ccc(CCCNc2c(C)c(C)c3c(c2C)C(c2ccc(C(C)C)cc2)C(C)(C)O3)cc1` (centres undefined): the melting point fell in the range of 62 to 65 °C. The figure for `CCCN(CCC)Cc1ccccc1P(=NC(=O)OCC)(c1ccccc1)c1ccccc1` is 102 to 104 °C; for `CS(=O)(=O)Oc1ccc(-c2c3ccccc3c(C(F)(F)F)c3sc4ccccc4c23)cc1` it is 215 to 216 °C; for `CC(=O)NCc1ccc2ccn(C3CCN(CCc4ccc(F)cc4)CC3)c2c1` it is 127 to 128 °C. In turn, `c1ccc2c(c1)OCC(c1ncc[nH]1)O2` (centres undefined) registered a melting point of 225 to 227 °C. The value for `COCOc1cc(OC)ccc1C(=O)c1ccc(OCc2nc(-c3ccccc3)oc2C)cc1` was 119 to 120 °C; that for `Cc1cc(C)nc(NC(=O)NS(=O)(=O)c2cc(Cl)sc2Cl)n1` was 192 to 194 °C. In turn, `Nc1sc2c(c1C(=O)c1ccc(Cl)cc1)CCSC2` came in with a melting point of 142 to 146 °C. The figure for `CC(C)(C)OC(=O)N1C(Cc2ccccc2)SC[C@H]1C(=O)O` (some centres undefined) is 156 °C.

Regarding `CCCCc1nc(CO)c(SCC)n1Cc1ccc(-c2ccccc2C(=O)OC)cc1`, the melting point came out at 110 °C. The value for `O=C(Nc1ccc(N2C[C@H]3CN(C(=O)OCc4ccccc4)C[C@H]3C2)c(F)c1)OCc1ccccc1` was 121 to 122 °C; that for `CC(NC(=O)N1CCc2cc(S(=O)(=O)N3CCN(c4cccc(Cl)c4)CC3)ccc21)C(=O)O` (centres undefined) was 175 to 176 °C.

Compound `CN[C@@H]1CN(c2nc3c(cc2F)c(=O)c(C(=O)O)cn3C(C)(C)C)[C@H]1C` (relative stereo) registered a melting point of 185 to 187 °C. The figure for `Cc1ccc2c(NCc3ccccc3)c3c(nc2c1)CCCC3O` (centres undefined) is 148 to 153 °C; for `COC(=O)c1ccc(Cc2c(C)[nH]c(C)cc2=O)cc1` it is 226 to 228 °C. Compound `COC(=O)c1ccc(S(=O)(=O)n2c(=O)[nH]c3cc(Cl)ccc3c2=O)cc1` displayed a melting point greater than 230 °C. The value for `Cn1c(-c2ccccc2)c(C2=CCC(C(=O)O)CC2)c2ccccc21` (centres undefined) was 171 to 172 °C; that for `COc1ccc(COc2cnc3c(S)cccn3c2=O)cc1` was greater than 230 °C; that for `CC(=O)c1cc(S(N)(=O)=O)ccc1O` was 197 to 199 °C. Compound `CCCN1C(=O)CC2CCC(C)C3CCC4(C)OOC23C1O4` (single isomer, unassigned; (-)) showed a melting point of 125 to 126 °C.

For the compound `COc1ccc(C2=NN(c3ccccc3)C(=O)[C@H]3CCCC[C@@H]23)cc1OC` (relative stereo), the melting point was 122 to 124 °C. Turning to `N#CC1=C(c2ccccc2)Nc2ccccc2S1(=O)=O`, the melting point was in the range of 286 to 289 °C. For `Cc1cc(C=O)cc(Oc2nc(OCc3ccccc3)nc(OCc3ccccc3)c2C(C)C)c1`, the melting point lay within 171 to 172 °C. Compound `CN1CCN(c2cc(NC(=O)OC(C)(C)C)c([N+](=O)[O-])cc2I)CC1` gave a melting point of 134 to 136 °C. The figure for `CCNC(=O)N1CCc2[nH]cnc2C1CCC1CCCCC1` (centres undefined) is 210 to 212 °C. The compound `CCN(CC)CCN(CCN1CCCCC1)c1ccc(-c2nc3ccccc3[nH]2)cc1` yielded a melting point of 190 to 191 °C. Take `CCOC(=S)Nc1ccccc1NC(=S)NC(=O)OC`: the melting point came out at 172 °C. The value for `CC(C)(C)NCCCOc1ccccc1Cc1cccc2[nH]ccc12` was 96 °C.

In the case of `O=C(NO)NCCc1cc2ccccc2o1`, the melting point lay within 157 to 158 °C.

In turn, `CO[C@@H]1[C@@H](OC)[C@H](C)O[C@@H](ON(Cc2ccc(-c3ncn(-c4ccc(OC(F)(F)F)cc4)n3)cc2)C(=O)CCC(=O)O)[C@@H]1OC` displayed a melting point of 61 to 75 °C. Turning to `O=C1OC(CN2CCC3(CC2)C(=O)NCN3c2ccccc2)CN1c1ccccc1` (centres undefined), the melting point was 166 to 168 °C. The compound `N#CC(C(=O)c1ccc(C(F)(F)F)cc1S(=O)(=O)C1CCCCC1)C(=O)C1CC1` (centres undefined) showed a melting point of 60 to 62 °C. The figure for `COCCOCCOCCOCCOc1ccc(N)cc1` is 42 to 44 °C; for `c1ccc(-c2nn3c(c2-c2cccc4nsnc24)CCC3)nc1` it is 140 to 142 °C; for `O=C(O)CN(C(=O)CCS)[C@H]1CC[C@H](c2ccccc2)CC1` it is 125 to 130 °C. The figure for `c1cn(-c2ccc(N3CCNCC3)cc2)cn1` is 177 to 180 °C; for `NC(=O)N(C(=O)c1c(F)cccc1Cl)c1ccc(SC(F)(F)F)cc1` it is 202 °C. The figure for `CCCn1cc2c(C3C(=O)Nc4ccc(Br)cc43)nc(NCc3cccnc3)nc2n1` (centres undefined) is 277 to 281 °C.

`CC(C)(C)[Si](OCCOc1ccc(/C=C/C(=O)O)c(Oc2ncc(C(F)(F)F)cc2Cl)c1)(c1ccccc1)c1ccccc1`: the melting point is 153 °C. The figure for `CCOC(=O)c1cnc2ccc(-c3ccc(C(F)(F)F)cc3)cn12` is 118 °C.

The compound `CCN1C(=O)Cc2cc(OCc3ccccc3C(=O)O)ccc21` gave a melting point of 180 to 181 °C.
